# Measured values reported in PubChem BioAssay (NCI).
# “And” between values parts separate entries of the source, which are not always exact repeats. Equal values may be shown once.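 All cell lines were grown in 96-well plates and treated with compound for 48 hours. GI50: concentration for 50% inhibition of growth. TGI is the concentration that stops growth completely.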 Where a SMILES comes first, the peptide text is derived from it. Side-chain parts run from the residue outwards. The star is where a group is joined. Cbz = O=C(OCc1ccccc1)*; Boc = CC(C)(C)OC(=O)*
# What was measured:
# Experiment in all cases: inhibition of tumour cell growth, NCI panel, 48 h
# [1] = test system: MDA-MB-435
# [2] = test system: HOP-92 NSCLC
# [3] = test system: COLO 205 colon
# [4] = test system: OVCAR-5 ovarian
# [5] = test system: ACHN renal
# [6] = test system: EKVX NSCLC
# [7] = test system: CAKI-1 renal
# [8] = test system: MALME-3M melanoma
# [9] = test system: NCI-H522 lung
# [10] = test system: NCI-H460 lung
# [11] = test system: RPMI-8226 leukemia
# [12] = test system: SNB-19 CNS
# [13] = test system: OVCAR-4 ovarian
# [14] = test system: SNB-75 CNS
# [15] = test system: BT-549 breast
Compound,TGI [1],TGI [2] [µM],TGI [3],TGI [4] [µM],TGI [5],TGI [6] [µM],TGI [7] [µM],TGI [8],TGI [9],TGI [10] [µM],TGI [11],TGI [12] [µM],TGI [13],TGI [14],TGI [15] [µM],GI50 [14] [µM],GI50 [4] [µM],GI50 [6] [µM],GI50 [13] [µM]
N#Cc1c(N2CCCC2)nsc1Nc1ccc(F)cc1,> 100 µM,> 100,> 100 µM,> 100,> 100 µM,> 100,> 100,> 100 µM,> 100 µM,> 100,> 100 µM,> 100,> 100 µM,–,–,–,–,–,–
CC(C)(C)OC(=O)NC(CCCCNC(=O)CNC(=O)OCc1ccccc1)C(=O)NC(CCCCNC(=O)CNC(=O)OCc1ccccc1)C(=O)NC(CCCCNC(=O)CNC(=O)OCc1ccccc1)C(=O)NC(CCCCNC(=O)CNC(=O)OCc1ccccc1)C(=O)O (configuration not stated) (Boc-K([Gly-Cbz])K([Gly-Cbz])K([Gly-Cbz])K([Gly-Cbz])-OH; configuration not given here),–,–,–,> 100,> 100 µM,–,> 100,> 100 µM,> 100 µM,> 100,> 100 µM,> 100,–,> 100 µM,> 100,–,–,–,–
NC1=Nc2ccccc2Sc2nc3ccccc3n21,–,> 100,> 100 µM,> 100,> 100 µM,–,–,> 100 µM,> 100 µM,> 100,> 100 µM,> 100,> 100 µM,> 100 µM,> 100,–,–,–,–
COc1ccc(C2=C(Cl)c3cc(OC)c(OC)cc3C2)cc1OC,–,> 100,> 100 µM,–,> 100 µM,> 100,–,> 100 µM,> 100 µM,–,> 100 µM,> 100,> 100 µM,> 100 µM,–,–,–,–,–
OCC1OC(c2ccccc2)CC1O (configuration not stated),> 100 µM,–,> 100 µM,> 100,> 100 µM,> 100,> 100,–,–,> 100,–,> 100,> 100 µM,> 100 µM,–,–,–,–,–
O=c1[nH]nc(Cc2ccc(Cl)cc2)n1/N=C/c1c[nH]c2ccccc12,> 100 µM,> 100,–,> 100,> 100 µM,> 100,> 100,> 100 µM,> 100 µM,> 100,> 100 µM,> 100,> 100 µM,> 100 µM,–,–,–,–,–
CC(C)C1=C(Cc2ccccc2)C(=O)O/C1=C\c1ccc(O)c(Cl)c1,30.7 µM,–,34.6 µM,32.3,28.1 µM,30.3,32.9,30.6 µM,–,31.1,28.1 µM,33.7,27.8 µM,30.6 µM,36.7,–,–,–,–
O=C(NN1C(=O)C(Cl)C1c1ccccc1Cl)c1ccccc1O (configuration not stated),–,–,–,–,> 100 µM,–,–,> 100 µM,> 100 µM,> 100,–,> 100,> 100 µM,> 100 µM,–,–,–,–,–
Cc1ccc2c(=O)cc(Cc3csc4ccccc34)[nH]c2n1,> 100 µM,–,> 100 µM,> 100,–,> 100,> 100,62.1 µM,53.3 µM,–,> 100 µM,> 100,91.4 µM,79.6 µM,66.4,–,–,–,–
O=C(c1ccccc1)c1c(C(F)(F)F)n([O-])c2cc(F)c(F)cc2[n+]1=O,4.14 µM,0.324,> 69.6 µM,2.98,0.232 µM,5,1.76,0.42 µM,> 7.96 µM,8.53,> 100 µM,10.8,> 100 µM,–,–,–,–,–,–
CC1=NN(C(=O)Cc2ccccc2)C(=O)/C1=C\c1ccccc1O,–,> 100,> 100 µM,> 100,> 100 µM,> 100,> 100,> 100 µM,> 100 µM,> 100,> 100 µM,> 100,> 100 µM,–,–,–,–,–,–
Cc1c2oc3c(C)cc(F)c(C(=O)NC4C(=O)NC(C(C)C)C(=O)N5CCCC5C(=O)N(C)CC(=O)N(C)C(C(C)C)C(=O)OC4C)c3nc-2c(C(=O)NC2C(=O)NC(C(C)C)C(=O)N3CCCC3C(=O)N(C)CC(=O)N(C)C(C(C)C)C(=O)OC2C)c(N)c1=O (configuration not stated),1.42 µM and 1.19 µM,0.887,0.286 µM and 0.354 µM,10.2,32.5 µM,46.8,3.73,–,1.66 µM and 1.95 µM,13.5,–,21.1,> 100 µM,1.9 µM and 1.75 µM,–,0.121,0.0688,0.767,0.559
O=c1[nH]c(=O)n(COCc2ccccc2)c2ccccc12,> 100 µM,> 100,> 100 µM,> 100,> 100 µM,> 100,> 100,–,–,> 100,–,> 100,> 100 µM,54.9 µM,–,–,–,–,–
CCC(=O)N1C(=O)C(CC)(CC)C(=O)N1C(=O)CC,> 100 µM,–,> 100 µM,> 100,> 100 µM,> 100,> 100,> 100 µM,> 100 µM,> 100,> 100 µM,> 100,> 100 µM,> 100 µM,> 100,–,–,–,–
C=CCOCn1ccc(N)nc1=O,> 100 µM,–,> 100 µM,–,–,> 100,> 100,> 100 µM,> 100 µM,–,> 100 µM,> 100,–,> 100 µM,> 100,–,–,–,–
O=C(CSCC(=O)N/N=C\c1ccccc1F)N/N=C\c1ccccc1F,> 100 µM,> 100,> 100 µM,–,> 100 µM,> 100,> 100,> 100 µM,> 100 µM,> 100,> 100 µM,> 100,> 100 µM,> 100 µM,–,–,–,–,–
CO[C@]12CC(=O)C3(C(C[C@H]4CC5CC[C@H]6C[C@@H](OC(C)=O)CC[C@]6(OC(C)=O)C5C[C@@]43C)C1)C1C[C@H]3[C@@H]4CC[C@H]5C[C@@H](OC(C)=O)CC[C@]5(OC(C)=O)[C@H]4CC[C@]3(C)C12 (some centres not stated),> 100 µM,> 100,> 100 µM,> 100,> 100 µM,> 100,> 100,> 100 µM,–,> 100,> 100 µM,> 100,> 100 µM,> 100 µM,–,–,–,–,–

Compound,TGI [1],TGI [2] [µM],TGI [3],TGI [4] [µM],TGI [5],TGI [6] [µM],TGI [7] [µM],TGI [8],TGI [9],TGI [10] [µM],TGI [11],TGI [12] [µM],TGI [13],TGI [14],TGI [15] [µM],GI50 [14] [µM],GI50 [4] [µM],GI50 [6] [µM],GI50 [13] [µM]
CS(=O)(=O)OCC1CCCCCCCCCCC12SCCCS2 (configuration not stated),> 100 µM,> 100,> 100 µM,> 100,> 100 µM,> 100,> 100,> 100 µM,> 100 µM,> 100,–,> 100,> 100 µM,–,–,–,–,–,–
Cc1ccc(NC(=O)/C(=N/NC(=O)C[N+](C)(C)C)c2nc3ccccc3[nH]c2=O)cc1,–,> 100,> 100 µM,> 100,> 100 µM,> 100,> 100,> 100 µM,–,> 100,> 100 µM,> 100,> 100 µM,> 100 µM,–,–,–,–,–
CC(=O)OCCOCNC(=S)N/N=C(\C)c1cccs1,–,–,> 100 µM,> 100,> 100 µM,> 100,–,> 100 µM,> 100 µM,> 100,> 100 µM,> 100,> 100 µM,> 100 µM,–,–,–,–,–
C[N+](C)(C)CC(=O)N/N=C(/Cc1nc2ccc([N+](=O)[O-])cc2[nH]c1=O)C(=O)Nc1cc(C(F)(F)F)ccc1Cl,–,> 100,> 100 µM,> 100,> 100 µM,> 100,> 100,> 100 µM,> 100 µM,> 100,> 100 µM,> 100,> 100 µM,–,–,–,–,–,–
CCN(CC)C1Oc2cc3c(cc2C(c2cccc(OC)c2O)C1C)OCO3 (configuration not stated),4.96 µM,–,13.6 µM,48.5,40.4 µM,62.3,27,21.7 µM,7.3 µM,21.9,13.6 µM,31.4,> 100 µM,23.1 µM,> 44.9,–,–,–,–
COc1cc2c(c(OC)c1OC)-c1ccc(SC)c(=O)cc1[C@@H](NCc1cccc([N+](=O)[O-])c1)CC2,–,> 100,< 0.01 µM,> 100,> 100 µM,> 100,> 100,> 100 µM,–,12.4,–,> 100,> 100 µM,> 100 µM,–,–,–,–,–
CCOC(OCC)C(CC)[Se]c1ccccc1 (configuration not stated),–,> 100,> 100 µM,> 100,> 100 µM,> 100,> 100,> 100 µM,46.2 µM,> 100,57.5 µM,> 100,> 100 µM,> 100 µM,–,–,–,–,–
COc1cc2c(c(OC)c1OC)-c1ccc(SC)c(=O)cc1[C@@H](NC(=O)c1ccc([N+](=O)[O-])cc1)CC2,–,23.2,25 µM,0.171,25 µM and > 100 µM,25,–,25 µM and > 100 µM,–,0.0108,25 µM and > 100 µM,23.2,25 µM and > 100 µM,–,–,< 0.0025,–,–,–
O=S(c1ccc(Cl)cc1)c1ccccc1C1=NCCN1 (configuration not stated),> 100 µM,–,> 100 µM,> 100,> 100 µM,> 100,> 100,> 100 µM,> 100 µM,> 100,> 100 µM,> 100,> 100 µM,> 100 µM,> 100,–,–,–,–
Cn1cnc(SC2=C3C(=O)C=C4S[C@H]5C[C@]42c2c(c(O)c4c6c2=[N+]3CCC=6C=N4)N5)c1CC(N)C(=O)O (some centres not stated),–,34.5,4.44 µM,28.5,29.5 µM,32.9,79.1,12.4 µM,16.4 µM,> 100,55.7 µM,32,31.1 µM,34.1 µM,–,–,–,–,–
Cn1nc2ccc3nccc(NCCNCCO)c3c2n1,–,> 100,44 µM,> 100,> 100 µM,–,> 100,> 100 µM,> 100 µM,45.2,> 100 µM,> 100,> 100 µM,> 100 µM,–,–,–,–,–
COc1cc(C(O)C(=O)c2cnc3cc([N+](=O)[O-])ccc3n2)ccc1O (configuration not stated),–,–,> 100 µM,–,> 100 µM,> 100,> 100,> 100 µM,–,> 100,> 100 µM,> 100,> 100 µM,> 100 µM,–,–,–,–,–
O=S1(=O)OCCCOS(=O)(=O)C1(Br)Br,> 100 µM,–,> 100 µM,> 100,> 100 µM,> 100,> 100,> 100 µM,> 100 µM,–,> 100 µM,> 100,> 100 µM,> 100 µM,> 100,–,–,–,–
COc1cccc([C@@H]2CC(=O)c3cc4c(cc3N2)OCO4)c1,> 100 µM,> 100,> 100 µM,> 100,> 100 µM,> 100,> 100,–,–,–,> 100 µM,> 100,> 100 µM,> 100 µM,–,–,–,–,–
CC(=O)N1C(Nc2cccc3nc(C)ccc23)CCN1c1ccccc1 (configuration not stated),> 10 µM,–,> 10 µM,> 10,> 10 µM,> 10,> 10,> 10 µM,> 10 µM,> 10,> 10 µM,> 10,> 10 µM,> 10 µM,> 10,–,–,–,–
OC(C1CCCCCCCCCC1)C(O)C1CCCCCCCCCC1 (configuration not stated),> 100 µM,–,> 100 µM,> 100,> 100 µM,> 100,> 100,> 100 µM,> 100 µM,> 100,> 100 µM,> 100,> 100 µM,> 100 µM,> 100,–,–,–,–
COc1ccc(CCCN2c3ccccc3Sc3ccccc32)cc1,–,> 100,> 100 µM,> 100,> 100 µM,> 100,> 100,> 100 µM,> 100 µM,> 100,> 100 µM,> 100,> 100 µM,> 100 µM,–,–,–,–,–
